Laboratory results reported in US4576943A, “Pyrazolo[1,5-a]pyrimidines” (American Cyanamid Company, priority 1984, dated 1986).

Legend:
[1] = Hypotensive activity in spontaneously hypertensive rats; type: in vivo, spontaneously hypertensive rats of the Okamoto strain; conditions: 100 mg/kg by gavage, two doses 24 hours apart, measured at 28 hours after the initial dose; one or two rats
Method: The novel compounds of the present invention are active hypotensive agents and were tested for hypotensive activity by the method of P. S. Chan and D. Poorvin, Clinical and Experimental Hypertension, 1 (6), 817-830 (1979). […] One to 3 rats are used per test compound. A rat is dosed by gavage with a test compound suspended in 2% pre-boiled starch at a concentration of 50 mg/ml, at a dose of 100 mg/kg of body weight or less, with 0.9% sodium chloride loading at a dose of 25 ml/kg of body weight. A second identical dose of the test compound, without sodium chloride loading is given 24 hours later. At 28 hours after the initial dose the mean arterial blood pressure is measured by the method of Chan and Poorvin (see above). The procedure is repeated in a second and third rat when necessary. The results of this test on representative compounds of the present invention which were obtained using one or two rats, at a dose of 100 mg/kg of body weight appear below in Table I.

[2] = system: brain-specific receptors (tritiated benzodiazepine binding, P2-synaptosomal fraction of rat whole cortex); test: Inhibition of the binding of 3H-benzodiazepine to brain-specific receptors of rats; set-up: species or system Male albino rats (Wistar strain); conditions: 3H-diazepam (1.5 nM) or 3H-flunitrazepam (1.0 nM), pH 7.4, 30 minutes in ice; test concentration not given
[3] = Hypoxic Survival Test; type: in vivo, Royal Hart mice; conditions: for % Survivors: 10% oxygen, 5 minutes
Method: Groups of 20 Royal Hart mice (6 weeks of age) are injected intraperitoneally with 10, 50 or 100 mg/kg of test compound 30 minutes prior to placing them in a hypoxic mixture (10% oxygen in 90% […]) and measuring survival after 5 minutes.
A separate group of 20 mice is injected intraperitoneally with saline solution (0.01 cc/g of body weight) and processed as described above.
Still another group of 20 mice is injected intraperitoneally with 0.125 mg/kg of physostigmine and processed as described above.

Row | Structure (SMILES) | Mean Arterial Blood Pressure [1] | % Inhibition of the binding of 3H-benzodiazepine [2] | further results
1 | CN1CCN(c2nn3c(-c4cccc(C(F)(F)F)c4)ccnc3c2C#N)CC1 [2-(4-Methyl-1-piperazinyl)-7-[3-(trifluoromethyl)phenyl]pyrazolo[1,5-a]pyrimidine-3-carbonitrile] | 139 mm of mercury |  | 
2 | N#Cc1c(N2CCSCC2)nn2c(-c3cccc(C(F)(F)F)c3)ccnc12 [2-(4-Thiomorpholinyl)-7-[3-(trifluoromethyl)phenyl]pyrazolo[1,5-a]pyrimidine-3-carbonitrile] | 148 mm of mercury |  | 
3 | N#Cc1c(N2CCN(CCO)CC2)nn2c(-c3cccnc3)ccnc12 [2-[4-(2-Hydroxyethyl)-1-piperazinyl]-7-(3-pyridinyl)pyrazolo[1,5-a]pyrimidine-3-carbonitrile] |  | 25% | 
4 | N#Cc1c(N2CCN(CCCCOc3ccccc3)CC2)nn2c(-c3cccnc3)ccnc12 [2-[4-(4-Phenoxybutyl)-1-piperazinyl]-7-(3-pyridinyl)pyrazolo[1,5-a]pyrimidine-3-carbonitrile] | 144 mm of mercury | 33% | 
5 | N#Cc1c(N2CCN(CCCCOc3ccccc3)CC2)nn2c(-c3cccc(C(F)(F)F)c3)ccnc12 [2-[4-(4-Phenoxybutyl)-1-piperazinyl]-7-[3-(trifluoromethyl)phenyl]pyrazolo[1,5-a]pyrimidine-3-carbonitrile] | 147 mm of mercury | 26% | 
6 | N#Cc1c(N2CCN(Cc3ccccc3)CC2)nn2c(-c3cccnc3)ccnc12 [2-[4-(Phenylmethyl)-1-piperazinyl]-7-(3-pyridinyl)pyrazolo[1,5-a]pyrimidine-3-carbonitrile] | 124 mm of mercury |  | % Survivors ([3]; 50 mg/kg i.p.): 40%
7 | NC(=O)c1c(N2CCN(Cc3ccccc3)CC2)nn2c(-c3cccc(C(F)(F)F)c3)ccnc12 [2-[4-(Phenylmethyl)-1-piperazinyl]-7-[3-(trifluoromethyl)phenyl]pyrazolo[1,5-a]pyrimidine-3-carboxamide] |  | 14% | 
8 | N#Cc1c(N2CCC(Cc3ccccc3)CC2)nn2c(-c3cccc(C(F)(F)F)c3)ccnc12 [2-[4-(Phenylmethyl)-1-piperidinyl]-7-[3-(trifluoromethyl)phenyl]pyrazolo[1,5-a]pyrimidine-3-carbonitrile] | 142 mm of mercury | 46% | 
9 | N#Cc1c(N2CCN(Cc3c(Cl)cccc3Cl)CC2)nn2c(-c3cccnc3)ccnc12 [2-[4-[(2,6-Dichlorophenyl)methyl]-1-piperazinyl]-7-(3-pyridinyl)pyrazolo[1,5-a]pyrimidine-3-carbonitrile] | 124 mm of mercury |  | 
10 | N#Cc1c(N2CCN(Cc3c(Cl)cccc3Cl)CC2)nn2c(-c3cccc(C(F)(F)F)c3)ccnc12 [2-[4-[(2,6-Dichlorophenyl)methyl]-1-piperazinyl]-7-[3-(trifluoromethyl)phenyl]pyrazolo[1,5-a]pyrimidine-3-carbonitrile] |  | 22% | 
11 | N#Cc1c(N2CCN(Cc3cccc(Cl)c3)CC2)nn2c(-c3cccnc3)ccnc12 [2-[4-[(3-Chlorophenyl)methyl]-1-piperazinyl]-7-(3-pyridinyl)pyrazolo[1,5-a]pyrimidine-3-carbonitrile] | 137 mm of mercury | 12% | 
12 | N#Cc1c(N2CCN(Cc3cccc(Cl)c3)CC2)nn2c(-c3cccc(C(F)(F)F)c3)ccnc12 [2-[4-[(3-Chlorophenyl)methyl]-1-piperazinyl]-7-[3-(trifluoromethyl)phenyl]pyrazolo[1,5-a]pyrimidine-3-carbonitrile] |  | 33% | 
13 | COc1cccc(CN2CCN(c3nn4c(-c5cccnc5)ccnc4c3C#N)CC2)c1.Cl [2-[4-[(3-Methoxyphenyl)methyl]-1-piperazinyl]-7-(3-pyridinyl)pyrazolo[1,5-a]pyrimidine-3-carbonitrile, monohydrochloride] | 138 mm of mercury | 18% | 
14 | COc1cccc(CN2CCN(c3nn4c(-c5cccc(C(F)(F)F)c5)ccnc4c3C#N)CC2)c1 [2-[4-[(3-Methoxyphenyl)methyl]-1-piperazinyl]-7-[3-(trifluoromethyl)phenyl]pyrazolo[1,5-a]pyrimidine-3-carbonitrile] | 140 mm of mercury |  | 
15 | N#Cc1c(N2CCN(Cc3ccc(Cl)cc3)CC2)nn2c(-c3cccnc3)ccnc12 [2-[4-[(4-Chlorophenyl)methyl]-1-piperazinyl]-7-(3-pyridinyl)pyrazolo[1,5-a]pyrimidine-3-carbonitrile] | 137 mm of mercury |  | 
16 | N#Cc1c(N2CCN(Cc3ccc(Cl)cc3)CC2)nn2c(-c3cccc(C(F)(F)F)c3)ccnc12 [2-[4-[(4-Chlorophenyl)methyl]-1-piperazinyl]-7-[3-(trifluoromethyl)phenyl]pyrazolo[1,5-a]pyrimidine-3-carbonitrile] | 127 mm of mercury | 15% | 
17 | COc1ccc(CN2CCN(c3nn4c(-c5cccc(C(F)(F)F)c5)ccnc4c3C#N)CC2)cc1 [2-[4-[(4-Methoxyphenyl)methyl]-1-piperazinyl]-7-[3-(trifluoromethyl)phenyl]pyrazolo[1,5-a]pyrimidine-3-carbonitrile] | 136 mm of mercury | 18% | 
18 | Cc1cc(-c2ccncc2)n2nc(N3CCN(Cc4ccccc4)CC3)c(C#N)c2n1 [5-Methyl-2-[4-(phenylmethyl)-1-piperazinyl]-7-(4-pyridinyl)pyrazolo[1,5-a]pyrimidine-3-carbonitrile] | 122 mm of mercury |  | 
19 | N#Cc1c(N2CCN(Cc3ccccc3)CC2)nn2c(-c3cccc(Cl)c3)ccnc12 [7-(3-Chlorophenyl)-2-[4-(phenylmethyl)-1-piperazinyl]pyrazolo[1,5-a]pyrimidine-3-carbonitrile] | 147 mm of mercury |  | % Survivors ([3]; 50 mg/kg i.p.): 47%
20 | N#Cc1c(N2CCSCC2)nn2c(-c3cccnc3)ccnc12 [7-(3-Pyridinyl)-2-(4-thiomorpholinyl)pyrazolo[1,5-a]pyrimidine-3-carbonitrile] | 141 mm of mercury |  | % Survivors ([3]; 100 mg/kg i.p.): 50%
21 | N#Cc1c(N2CCN(c3ccccn3)CC2)nn2c(-c3cccnc3)ccnc12 [7-(3-Pyridinyl)-2-[4-(2-pyridinyl)-1-piperazinyl]pyrazolo[1,5-a]pyrimidine-3-carbonitrile] | 143 mm of mercury |  | 
22 | N#Cc1c(N2CCN(Cc3ccccc3)CC2)nn2c(-c3ccc(Cl)cc3)ccnc12 [7-(4-Chlorophenyl)-2-[4-(phenylmethyl)-1-piperazinyl]pyrazolo[1,5-a]pyrimidine-3-carbonitrile] | 142 mm of mercury |  | 
23 | CN(C)C=NC(=O)c1c(N2CCN(Cc3ccccc3)CC2)nn2c(-c3cccc(C(F)(F)F)c3)ccnc12 [N-[(Dimethylamino)methylene]-2-[4-(phenylmethyl)-1-piperazinyl]-7-[3-(trifluoromethyl)phenyl]pyrazolo-[1,5-a]pyrimidine-3-carboxamide] | 103 mm of mercury |  | 
24 | CNC(=O)Oc1ccc2c(c1)[C@]1(C)CCN(C)[C@@H]1N2C [physostigmine, reference compound] |  |  | physostigmine treated mice survive ([3]; 0.125 mg/kg i.p., 5 minute exposure): 60-80%
